Columns and labels:
purified STAT1 protein = target: T1, purified STAT1 protein (Homo sapiens, UniProt P42224); assay: Protein thermal shift (PTS) assay of STAT1; type: binding; details: for ΔTm at 0.02 µM: 20 nM
T1 sequence (P42224 1-750): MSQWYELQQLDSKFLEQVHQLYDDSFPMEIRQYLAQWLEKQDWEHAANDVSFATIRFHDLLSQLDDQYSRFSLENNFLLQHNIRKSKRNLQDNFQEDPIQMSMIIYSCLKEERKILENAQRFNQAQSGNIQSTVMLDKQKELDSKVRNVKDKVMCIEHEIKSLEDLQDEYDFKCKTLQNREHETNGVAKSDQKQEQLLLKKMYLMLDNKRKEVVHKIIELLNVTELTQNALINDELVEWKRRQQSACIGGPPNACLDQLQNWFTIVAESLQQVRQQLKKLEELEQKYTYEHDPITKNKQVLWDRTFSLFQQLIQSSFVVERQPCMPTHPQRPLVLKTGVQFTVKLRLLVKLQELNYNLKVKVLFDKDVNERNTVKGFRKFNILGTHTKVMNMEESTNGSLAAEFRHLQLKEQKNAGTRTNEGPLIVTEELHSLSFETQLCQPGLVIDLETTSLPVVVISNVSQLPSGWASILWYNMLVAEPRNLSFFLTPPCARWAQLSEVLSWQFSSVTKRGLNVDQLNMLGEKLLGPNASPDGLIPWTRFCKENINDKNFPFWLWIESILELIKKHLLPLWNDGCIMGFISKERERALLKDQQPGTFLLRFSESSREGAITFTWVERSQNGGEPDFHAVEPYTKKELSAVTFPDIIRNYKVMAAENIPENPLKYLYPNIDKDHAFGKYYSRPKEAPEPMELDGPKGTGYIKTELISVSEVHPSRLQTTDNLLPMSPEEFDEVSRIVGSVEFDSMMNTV
Method: (§1) FIG. 5 illustrates an embodiment of the present invention and illustrates evaluations of SIM-1 and SIM-2 as STAT3 inhibitors. (A) Protein thermal shift assay was performed to assess the melting of purified recombinant STAT3 (blue; 0.5 μg protein) (Tm=melting temperature=68.88° C.). The representative melting curves were derived after adding SIM-1 (red; 4 nM), SIM-2 (purple; 8 nM), and positive control stattic (grey; 20 nM) to the STAT3 protein. The differences of melting temperature (ΔTm) between pure protein and protein+ligands are −4.54° C., −4.16° C., and 0.39° C. for SIM-1, SIM-2, and stattic (ΔTm^cut-off>2° C.). (B) Phospho protein array analysis was conducted in cell lysates of MDA-MB-468 cells treated with DMSO control (top left), 25 ng/mL EGF (top right), EGF+10 nM SIM-1 (bottom left), and EGF+SIM-2 (bottom right) for 24 hrs. Each colored arrowhead represents a specific phosphoprotein, and the description was added in the bottom of array images. S=serine and Y=tyrosine. Relative levels of (C) Tyrosine 705 (Y705) phosphorylated STAT3, (D) Serine 727 (S727) phosphorylated STAT3, (E) Tyrosine 693 (Y693) phosphorylated STAT4, (F) Tyrosine 694 ([…]) phosphorylated STAT5A had been derived after normalizing the spot densities (n=5) with respective β-actin spots. Results are mean±SD of five different spot analyses. One-way ANOVA was adopted to test the significance of mean between groups at **p<0.01, and ****p<0.0001. Ns=no significance. Thermal shift assays of increasing doses of (G) SIM-1, (H) SIM-2, and (I) stattic with purified STAT1 protein (0.5 μg protein). The respective ΔTm values were given with the plot after matching with the color code. Similarly, full-length STAT5b protein melting was assessed with (J) SIM-1, (K) SIM-2, and (L) stattic. Results are confirmed after three different experiments.
(§2) To confirm the result, PTS assay of STAT1 with SIM-1 (FIG. 5G), SIM-2 (FIG. 5H), and stattic (FIG. 5I) was performed. […] Similar results were observed while performing the binding assay with STAT5b.

[1] = target: T2, full-length STAT5b protein (Homo sapiens, UniProt P51692); assay: Protein thermal shift binding assay with STAT5b; details: increasing doses
T2 construct: full-length STAT5b protein melting was assessed with (J) SIM-1, (K) SIM-2, and (L) stattic
T2 sequence (P51692 1-787): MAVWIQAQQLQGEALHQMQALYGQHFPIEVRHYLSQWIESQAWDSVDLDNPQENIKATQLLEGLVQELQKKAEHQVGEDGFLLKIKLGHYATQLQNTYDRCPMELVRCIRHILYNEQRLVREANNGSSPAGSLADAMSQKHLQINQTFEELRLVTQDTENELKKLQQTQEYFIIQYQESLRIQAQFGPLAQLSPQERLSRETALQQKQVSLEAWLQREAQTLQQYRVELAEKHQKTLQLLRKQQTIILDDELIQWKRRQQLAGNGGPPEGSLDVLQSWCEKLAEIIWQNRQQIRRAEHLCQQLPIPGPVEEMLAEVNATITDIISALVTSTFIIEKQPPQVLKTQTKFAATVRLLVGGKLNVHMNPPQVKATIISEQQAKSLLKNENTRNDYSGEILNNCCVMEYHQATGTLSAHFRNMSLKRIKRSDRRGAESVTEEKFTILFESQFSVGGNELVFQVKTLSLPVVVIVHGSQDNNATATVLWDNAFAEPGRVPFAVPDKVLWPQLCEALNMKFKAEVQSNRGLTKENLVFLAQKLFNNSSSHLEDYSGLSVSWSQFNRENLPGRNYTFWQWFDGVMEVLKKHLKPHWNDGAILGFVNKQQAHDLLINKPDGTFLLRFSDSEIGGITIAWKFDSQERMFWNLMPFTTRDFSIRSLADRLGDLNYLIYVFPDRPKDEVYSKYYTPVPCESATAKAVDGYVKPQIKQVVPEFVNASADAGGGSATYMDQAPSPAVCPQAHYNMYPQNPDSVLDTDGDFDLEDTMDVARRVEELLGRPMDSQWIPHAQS
Method: as §1, §2

| SMILES | ΔTm at 0.02 µM (purified STAT1 protein) [°C] | ΔTm of STAT1 (purified STAT1 protein; concentration printed only as 'nM' (figure missing)) [°C] | shift in the melting curve of STAT5b [1] | ΔTm at 0.01 µM (purified STAT1 protein; 10 nM) [°C] |
| --- | --- | --- | --- | --- |
| O=C(O)CCC(=O)NCc1csc2ccc(Cl)cc12 [SIM-1, 4-[(5-chloro-1-benzothiophen-3-yl)methylamino]-4-oxobutanoic acid] | 0.29 | 0.41 | unable to produce any significant shift | – |
| CCOC(=O)c1c(NC(C)=O)sc2c(Cl)c(/C=N/O)ccc12 [SIM-2, ethyl 2-acetamido-7-chloro-6-(hydroxyiminomethyl)-1-benzothiophene-3-carboxylate] | 0.89 | – | unable to produce any significant shift | 0.46 |
